Where “and” joins values, the source holds several entries; their conditions need not be identical. Identical values can stand only once. Inconclusive results and toxic doses are left out. Rule as the data show it: active = T/C of 150% or more; inactive = T/C below 125%.
System: L1210 leukemia ip in BDF1 mice, survival T/C
Experiment: NCI In Vivo Anticancer Drug Screen. Data for tumor model L1210 Leukemia (intraperitoneal) in B6D2F1 (BDF1) mice
Conditions: endpoint: mean survival time, higher = longer survival
Summary of the method: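 Antitumor effect is assessed in tumor-bearing animals. Survival in the compound arm is compared with a vehicle-dosed control arm and expressed as their quotient.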

[1] = dose: 100.0 mg/kg/injection, schedule: Q01DX001 (ip), vehicle: saline
[2] = dose: 50.0 mg/kg/injection, schedule: Q01DX001 (ip), vehicle: saline
[3] = dose: 200.0 mg/kg/injection, schedule: Q01DX001 (ip), vehicle: saline
[4] = dose: 400.0 mg/kg/injection, schedule: Q01DX001 (ip), vehicle: saline
[5] = dose: 100.0 mg/kg/injection, schedule: Q04DX003 (ip), vehicle: saline with Tween-80
[6] = dose: 200.0 mg/kg/injection, schedule: Q04DX003 (ip), vehicle: saline with Tween-80
[7] = dose: 400.0 mg/kg/injection, schedule: Q04DX003 (ip), vehicle: saline with Tween-80
[8] = dose: 100.0 mg/kg/injection, schedule: Q04DX002 (ip), vehicle: saline with Tween-80
[9] = dose: 200.0 mg/kg/injection, schedule: Q04DX002 (ip), vehicle: saline with Tween-80
[10] = dose: 100.0 mg/kg/injection, schedule: Q01DX001 (ip), vehicle: carboxymethylcellulose (CMC)
[11] = dose: 100.0 mg/kg/injection, schedule: Q04DX002 (ip), vehicle: Klucel (hydroxypropylcellulose) (HPC)
[12] = dose: 200.0 mg/kg/injection, schedule: Q01DX001 (ip), vehicle: carboxymethylcellulose (CMC)
[13] = dose: 200.0 mg/kg/injection, schedule: Q04DX002 (ip), vehicle: Klucel (hydroxypropylcellulose) (HPC)
[14] = dose: 100.0 mg/kg/injection, schedule: Q01DX009 (ip), vehicle: saline with Tween-80
[15] = dose: 200.0 mg/kg/injection, schedule: Q01DX009 (ip), vehicle: saline with Tween-80
[16] = dose: 100.0 mg/kg/injection, schedule: Q04DX003 (ip), vehicle: Klucel (hydroxypropylcellulose) (HPC)
[17] = dose: 200.0 mg/kg/injection, schedule: Q04DX003 (ip), vehicle: Klucel (hydroxypropylcellulose) (HPC)

Measured: T/C

COC(=O)c1ccc(N(C)CCC(=O)CBr)cc1
inactive: [1] 95 % of control

CC(=O)Nc1ccc(OCc2ccccc2)cc1[N+](=O)[O-]
inactive: [2] 95 % of control | [1] 101 % of control | [3] 98 % of control | [4] 93 % of control

CC12CCC(C1)C(C)(C)C2[N+]#N (stereo not given)
inactive: dose: 75.0 mg/kg/injection, schedule: Q01DX001 (ip), vehicle: saline 105 % of control

CCC(=O)c1ccc(OCC(CN2CCN(c3ccccc3OC)CC2)OC(C)=O)cc1 (stereo not given)
inactive: [5] 97 % of control | [6] 105 % of control | [7] 100 % of control

Cc1cc(O)c(O)c(S(=O)(=O)c2ccc(N)cc2)c1
inactive: dose: 75.0 mg/kg/injection, schedule: Q01DX009 (ip), vehicle: carboxymethylcellulose (CMC) 93 % of control | dose: 150.0 mg/kg/injection, schedule: Q01DX009 (ip), vehicle: carboxymethylcellulose (CMC) 89 % of control | dose: 300.0 mg/kg/injection, schedule: Q01DX009 (ip), vehicle: carboxymethylcellulose (CMC) 86 % of control

COc1cccc(CNc2ccc(C)c(Cl)c2)c1OC
inactive: dose: 100.0 mg/kg/injection, schedule: Q01DX009 (ip), vehicle: gum acacia 99 % of control | dose: 100.0 mg/kg/injection, schedule: Q04DX003 (ip), vehicle: gum acacia 104 % of control | dose: 200.0 mg/kg/injection, schedule: Q01DX009 (ip), vehicle: gum acacia 108 % of control | dose: 200.0 mg/kg/injection, schedule: Q04DX003 (ip), vehicle: gum acacia 97 % of control | dose: 400.0 mg/kg/injection, schedule: Q01DX009 (ip), vehicle: gum acacia 87 % of control | dose: 400.0 mg/kg/injection, schedule: Q04DX003 (ip), vehicle: gum acacia 90 % of control

c1cc(Cc2ccc3c(c2)OCO3)c[nH]1
inactive: dose: 50.0 mg/kg/injection, schedule: Q04DX002 (ip), vehicle: saline with Tween-80 103 % of control | [8] 110 % of control | [9] 100 % of control

NNC(=O)CNc1cc(Cl)cc(Cl)c1
inactive: [10] 94 % of control | dose: 100.0 mg/kg/injection, schedule: Q01DX009 (ip), vehicle: carboxymethylcellulose (CMC) 92 % of control | [11] 91 % of control | dose: 100.0 mg/kg/injection, schedule: Q04DX002 (ip), vehicle: carboxymethylcellulose (CMC) 95 % of control and 100 % of control | dose: 100.0 mg/kg/injection, schedule: Q04DX003 (ip), vehicle: carboxymethylcellulose (CMC) 92 % of control | [12] 96 % of control | dose: 200.0 mg/kg/injection, schedule: Q01DX009 (ip), vehicle: carboxymethylcellulose (CMC) 88 % of control | [13] 109 % of control | dose: 200.0 mg/kg/injection, schedule: Q04DX002 (ip), vehicle: carboxymethylcellulose (CMC) 95 % of control and 104 % of control | dose: 200.0 mg/kg/injection, schedule: Q04DX003 (ip), vehicle: carboxymethylcellulose (CMC) 97 % of control | dose: 400.0 mg/kg/injection, schedule: Q04DX002 (ip), vehicle: carboxymethylcellulose (CMC) 98 % of control

CCOP(=S)(S)OCC.[Cr]
inactive: dose: 50.0 mg/kg/injection, schedule: Q01DX001 (ip), vehicle: other 98 % of control | dose: 100.0 mg/kg/injection, schedule: Q01DX001 (ip), vehicle: other 98 % of control | dose: 200.0 mg/kg/injection, schedule: Q01DX001 (ip), vehicle: other 102 % of control | dose: 400.0 mg/kg/injection, schedule: Q01DX001 (ip), vehicle: other 96 % of control

Cc1cccc(NC(=O)OC/C=C/c2ccccc2)c1
inactive: dose: 100.0 mg/kg/injection, schedule: Q01DX001 (ip), vehicle: saline with Tween-80 114 % of control | [14] 102 % of control and 103 % of control | [8] 105 % of control and 108 % of control | [5] 86 % of control | dose: 200.0 mg/kg/injection, schedule: Q01DX001 (ip), vehicle: saline with Tween-80 103 % of control | [15] 95 % of control and 96 % of control | [9] 95 % of control and 105 % of control | [6] 90 % of control | dose: 400.0 mg/kg/injection, schedule: Q01DX001 (ip), vehicle: saline with Tween-80 97 % of control | dose: 400.0 mg/kg/injection, schedule: Q01DX009 (ip), vehicle: saline with Tween-80 90 % of control | dose: 400.0 mg/kg/injection, schedule: Q04DX002 (ip), vehicle: saline with Tween-80 95 % of control and 105 % of control | [7] 86 % of control

Nc1nc[nH]c1C(=O)NO
inactive: [1] 100 % of control | [3] 103 % of control | [4] 92 % of control

CCC(C)N1C(=O)CCC1=O (stereo not given)
inactive: dose: 150.0 mg/kg/injection, schedule: Q01DX001 (ip), vehicle: saline 101 % of control | dose: 300.0 mg/kg/injection, schedule: Q01DX001 (ip), vehicle: saline 101 % of control | dose: 600.0 mg/kg/injection, schedule: Q01DX001 (ip), vehicle: saline 101 % of control

Nc1ccc(Oc2ccc(Cl)cc2)c(Cl)c1
inactive: [14] 103 % of control | [16] 103 % of control | [15] 94 % of control | [17] 92 % of control | dose: 400.0 mg/kg/injection, schedule: Q04DX003 (ip), vehicle: Klucel (hydroxypropylcellulose) (HPC) 111 % of control

COC1=CC23CCCN2CCc2cc4c(cc2C3C1O)OCO4 (stereo not given)
inactive: dose: 25.0 mg/kg/injection, schedule: Q01DX009 (ip), vehicle: saline 93 % of control | dose: 50.0 mg/kg/injection, schedule: Q01DX009 (ip), vehicle: saline 103 % of control | dose: 55.0 mg/kg/injection, schedule: Q01DX009 (ip), vehicle: saline 98 % of control | dose: 100.0 mg/kg/injection, schedule: Q01DX009 (ip), vehicle: saline 117 % of control | dose: 110.0 mg/kg/injection, schedule: Q01DX009 (ip), vehicle: saline 107 % of control | dose: 220.0 mg/kg/injection, schedule: Q01DX009 (ip), vehicle: saline 102 % of control

O=C1C(=O)c2ccccc2C([O-])=C1[n+]1ccccc1
inactive: dose: 50.0 mg/kg/injection, schedule: Q01DX009 (ip), vehicle: saline with Tween-80 97 % of control | dose: 50.0 mg/kg/injection, schedule: Q04DX003 (ip), vehicle: saline with Tween-80 103 % of control | [14] 95 % of control | [5] 97 % of control | [15] 93 % of control | [6] 98 % of control

CCOC(=O)C(Cc1c[nH]c2ccccc12)(NC=O)C(=O)OCC
inactive: dose: 100.0 mg/kg/injection, schedule: Q01DX009 (ip), vehicle: Klucel (hydroxypropylcellulose) (HPC) 91 % of control | dose: 200.0 mg/kg/injection, schedule: Q01DX009 (ip), vehicle: Klucel (hydroxypropylcellulose) (HPC) 100 % of control | dose: 400.0 mg/kg/injection, schedule: Q01DX009 (ip), vehicle: Klucel (hydroxypropylcellulose) (HPC) 91 % of control

CCCCCCCCCCCCCCCCCC(CCCCCCCCCCCCCCCCC)=NNC(N)=S
inactive: dose: 100.0 mg/kg/injection, schedule: Q01DX009 (ip), vehicle: other 92 % of control | dose: 200.0 mg/kg/injection, schedule: Q01DX009 (ip), vehicle: other 89 % of control | dose: 400.0 mg/kg/injection, schedule: Q01DX009 (ip), vehicle: other 97 % of control

CCCCCCCCCCS(=O)(=O)CC(=O)O
inactive: [16] 100 % of control | [5] 100 % of control | [17] 90 % of control | [6] 98 % of control

CC(C)(C)NC(=O)NCC1CCCC1NC(=O)NC(C)(C)C (stereo not given)
inactive: [11] 92 % of control | [13] 99 % of control | dose: 400.0 mg/kg/injection, schedule: Q04DX002 (ip), vehicle: Klucel (hydroxypropylcellulose) (HPC) 92 % of control

O/N=C/c1ccc(Cl)cc1
inactive: [2] 97 % of control | [1] 100 % of control | [3] 94 % of control

CC(=O)CC(=O)C(F)(F)F.CC(=O)CC(=O)C(F)(F)F.CC(=O)CC(=O)C(F)(F)F.[Cr]
inactive: [10] 109 % of control | [12] 96 % of control | dose: 400.0 mg/kg/injection, schedule: Q01DX001 (ip), vehicle: carboxymethylcellulose (CMC) 98 % of control

Reference: PubChem BioAssay AID248 (DTP/NCI, 2004)
